Reference: patent publication US20250129012A1, “ANTI-INFLAMMATORY AND ANALGESIC COMPOUNDS AND USE THEREOF” (JIANGSU ATOM BIOSCIENCE AND PHARMACEUTICAL CO., LTD., priority 2021, published 2025)
Like-named read-outs stand apart in the source and are kept apart here. Marks after values point to notes of the source that are not given here.

Tests used:
[1] = test system: gouty arthritis in rats (urate crystals, left ankle joint); assay: Pharmacodynamics experiment A on gouty arthritis in rats: paw volume; type: in vivo, SD rats; conditions: for Paw volume: Mean ± SEM
Protocol: (§1) Compounds 2, 17, 26 and 27 were prepared by grinding with 0.5% CMC-Na into a suspension of the corresponding concentration (0.06 mg/mL) for gavage before administration, and the volume of administration was 10 mL/kg. […] Before use, 0.5% CMC-Na was used for grinding and prepared into a suspension of the corresponding concentration (0.06 mg/mL) for gavage, and the volume of drug administered was 10 mL/kg.
(§2) Each group of subjects was prepared into a suspension of the corresponding concentration, and the administration volume was 10 mL/kg.
(§3) The crystalline arthritis model was prepared by intra-articular injection of urate crystals (40 mg/mL, in the left ankle joint of each rat). Different doses of the test drug were given separately by gavage administration. The day of administration was defined as day 1 of the experiment, and the drug was administered once a day for 10 consecutive days (pre-administration of the drug for 7 days prior to modeling, modeling on day 8, and continuation of the drug for 3 days). The experiment ended on day 10.
Paw volume was measured before administration, before urate injection, and 2, 4, 8, 10, 24, and 48 h after injection.
(§4) The data obtained from the experiment were statistically analyzed using IBM SPSS Statistics 22.0. All measurements were expressed as Mean±S.E.M s. The data were analyzed using SPSS 22.0 statistical software and variance chi-square test was performed on the parameters.

[2] = test system: gouty arthritis in rats (urate crystals, left ankle joint); assay: Pharmacodynamics experiment A on gouty arthritis in rats: gait score; type: in vivo, SD rats; parameters: Gait Score: scale not given here; conditions: 0.6 mg/kg gavage; for Gait Score: Mean ± SEM
Protocol: as §1, §2, §3
The degree of lameness of the modeled joints was observed and scored at the same time point.
as §4

[3] = test system: gouty arthritis in rats (urate crystals, left ankle joint); assay: Pharmacodynamics experiment A on gouty arthritis in rats: pain score; type: in vivo, SD rats; parameters: Pain score: scale not given here; conditions: 0.6 mg/kg gavage; for Pain score: Mean ± SEM
Protocol: as §1, §2, §3
The pain level was scored using the flexion and extension joint pain test scoring method at the same time point.
as §4

[4] = test system: gouty arthritis rats (sodium urate, right ankle and knee joint cavities); assay: Pharmacodynamics experiment B on gouty arthritis rats: gait score; type: in vivo, SD rats; conditions: for Gait Score: mean
Summary of the method: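 Male SD rats (180-220 g) received test compounds by gavage as 0.5% CMC-Na suspensions, once daily for 7 days before modeling and for 3 days afterward. Gouty arthritis was induced by injecting 0.2 mL sodium urate solution into the right ankle and knee joint cavities. Gait was graded 0-3 using modified Coderre criteria, and group mean scores were compared with the model group by ANOVA-Dunnett T-test (P<0.05).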

[5] = In vivo pharmacokinetics in SD rats; conditions: for AUC(0-inf): read-out: AUCINF; for MRT inf: read-out: MRTINF
Summary of the method: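 SD rats received compound intravenously (0.5 mg/mL solution) or by oral gavage (1 mg/mL, fasted overnight), both formulated in DMSO/Solutol HS15/saline. Plasma compound concentrations were measured by LC/MS/MS. Non-compartmental parameters were then calculated.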

[6] = time points after modeling, P<0.05 or P<0.01
[7] = Sprague-Dawley, rat, in vivo, po, Gavage - 10 mg/kg
[8] = Sprague-Dawley, rat, in vivo, Intravenous injection - 1 mg/kg

In the case of COc1cc2c(c(OC)c1OC)-c1ccc(OC)c(=O)cc1[C@@H](NC(C)=O)CC2 [colchicine, reference compound], the “Paw volume versus model group, in words” value ([1]; 0.6 mg/kg gavage, time points after modeling) is reported as “significantly smaller than those in the model group at 2 h, 4 h, 8 h, 10 h, and 48 h after modeling”, the Paw volume ([1]; 2 h after modeling, 0.6 mg/kg gavage) is reported as 2.44 ± 0.02*** cm^3 and the Paw volume ([1]; 4 h after modeling, 0.6 mg/kg gavage) is reported as 2.45 ± 0.03** cm^3. For the same compound, the Paw volume ([1]; 8 h after modeling, 0.6 mg/kg gavage) was 2.44 ± 0.04*** cm^3, the Paw volume ([1]; 10 h after modeling, 0.6 mg/kg gavage) was 2.46 ± 0.04** cm^3 and the Paw volume ([1]; 24 h after modeling, 0.6 mg/kg gavage) was 2.46 ± 0.05 cm^3. For the same compound, the Paw volume ([1]; 48 h after modeling, 0.6 mg/kg gavage) was 2.24 ± 0.03*** cm^3, the Paw volume ([1]; before modeling, 0.6 mg/kg gavage once a day) was 2.18 ± 0.03 cm^3 and the “Gait versus model group, in words” value [2, 6] was “improved the gait of rats at 2 h, 24 h, and 48 h after modeling”. It also gave a Gait Score ([2]; 2 h after modeling) of 1.10 ± 0.10, a Gait Score ([2]; 4 h after modeling) of 1.10 ± 0.10 and a Gait Score ([2]; 8 h after modeling) of 1.30 ± 0.15. The Gait Score ([2]; 10 h after modeling) was 1.30 ± 0.21, the Gait Score ([2]; 24 h after modeling) was 1.00 ± 0.00 and the Gait Score ([2]; 48 h after modeling) was 1.00 ± 0.00. The Gait Score ([2]; before modeling) was 0.00 ± 0.00, the “Pain versus model group, in words” value [3, 6] was “improved the pain at 2 h, 8 h, 24 h, and 48 h” and the Pain score ([3]; 2 h after modeling) was 3.30 ± 0.60. For the same compound, the Pain score ([3]; 4 h after modeling) was 2.90 ± 0.71, the Pain score ([3]; 8 h after modeling) was 3.20 ± 0.61 and the Pain score ([3]; 10 h after modeling) was 2.60 ± 0.70. The Pain score ([3]; 24 h after modeling) was 1.40 ± 0.58, the Pain score ([3]; 48 h after modeling) was 0.80 ± 0.44 and the Pain score ([3]; before modeling) was 0.00 ± 0.00. The “Gait Score” value ([4]; 2 h, dose 0.6 mg/kg gavage) was 0, the “Gait Score” value ([4]; 2 h, dose 1.2 mg/kg gavage (high dose group)) was 0 and the “Gait Score” value ([4]; 4 h, dose 0.6 mg/kg gavage) was 0.02*. The “Gait Score” value ([4]; 4 h, dose 1.2 mg/kg gavage (high dose group)) was 0**, the “Gait Score” value ([4]; 8 h, dose 0.6 mg/kg gavage) was 0.24* and the “Gait Score” value ([4]; 8 h, dose 1.2 mg/kg gavage (high dose group)) was 0.1**. The “Gait Score” value ([4]; 10 h, dose 0.6 mg/kg gavage) was 0.16**, the “Gait Score” value ([4]; 10 h, dose 1.2 mg/kg gavage (high dose group)) was 0.18** and the “Gait Score” value ([4]; 24 h, dose 0.6 mg/kg gavage) was 0.02*. For the same compound, the “Gait Score” value ([4]; 24 h, dose 1.2 mg/kg gavage (high dose group)) was 0*, the “Gait Score” value ([4]; 48 h, dose 0.6 mg/kg gavage) was 0.02 and the “Gait Score” value ([4]; 48 h, dose 1.2 mg/kg gavage (high dose group)) was 0. The “Gait versus model group, in words” value ([4]; compounds 0.6 mg/kg, colchicine 0.6 and 1.2 mg/kg) was “significantly improved the gait of rats”, the F ([5]; Gavage - 10 mg/kg, calculated by AUCINF) was 8.73% and the AUC(0-inf) [5, 7] was 735 ng·h/mL. The Cmax ([5]; Sprague-Dawley, rat, in vivo, po, Gavage - 10 mg/kg, read-out: Cmax) was 175 ng/mL, the MRT inf [5, 7] was 25.7 h and the Tmax ([5]; Sprague-Dawley, rat, in vivo, po, Gavage - 10 mg/kg, read-out: Tmax) was 0.417 h. It also gave an AUC(0-inf) [5, 8] of 567 ng·h/mL, a clearance ([5]; Sprague-Dawley, rat, in vivo, Intravenous injection - 1 mg/kg, read-out: CL (converted)) of 31.8 mL/min/kg and an MRT inf [5, 8] of 11 h. For the same compound, the Vd ([5]; Sprague-Dawley, rat, in vivo, Intravenous injection - 1 mg/kg, read-out: VSS) was 17.6 L/kg.
